From paper PMC5514153, “Targeting PTPRZ inhibits stem cell-like properties and tumorigenicity in glioblastoma cells” (Scientific Reports, 2017)

Experiments:
C6 cells = test: Sphere formation, SOX2 expression and self-renewal, C6 cells; assay type: cell-based, rat
Procedure: Figure 7 Cellular effects of NAZ2329 on the malignant phenotypes of C6 cells. (A) Phosphorylation of paxillin at Tyr-118. C6 cells were incubated with NAZ2329 for the indicated periods. Immunoprecipitated paxillin was analyzed by Western blotting using anti-pY118-paxillin and anti-paxillin. Blots are representative of five independent cultures. […] (B) Cell proliferation assay. C6 cells were incubated for 48 h with NAZ2329 in normal medium containing 2% FBS. […] (C) Boyden chamber assay. Cells were allowed to migrate for 3 h. DAPI-stained nuclei are shown before (total) and after (migrated) the removal of cells remaining in the top chamber. Scale bars, 100 µm. […] (D,E) Sphere formation (D) and SOX2 expression (E). C6 cells were cultured in CSC medium for 7 days with indicated concentrations of NAZ2329. Images are representative of five independent cultures. Scale bars, 100 µm. […] (F) Self-renewal of C6 spheres. C6 spheres were initially developed in CSC medium for 7 days, followed by an incubation with NAZ2329 in CSC medium for 5 days. Images are representative of five independent cultures. Scale bars, 100 µm. […] Full-length blots and gels are presented in Supplementary Fig. S7.
Cells were inoculated at 5 × 10^3 cells per 96-well uncoated polystyrene plate (# 9018, Corning) or 5 × 10^4 cells per 35-mm plastic petri dish (#351008, Corning), and cultured in a serum-free medium containing DMEM/F12 with 1x B27 supplement (#17504044, Thermo Fisher Scientific), EGF (20 ng/ml), and basic fibroblast growth factor (bFGF, 20 ng/ml, #064-05381, Wako pure chemical). After a 7-day culture, cells were fixed with 10% neutral formalin and pictured under a conventional microscope. The number of spheroids of approximately 70 µm in diameter were counted manually using Adobe Photoshop CS6 (Adobe).

hPTPRM = target: T1, hPTPRM (Homo sapiens, UniProt P28827); test: In vitro PTPase assay (DiFMUP), PTPRM; assay type: biochemical; conditions: 60-min preincubation
T1 construct: Recombinant proteins corresponding to the entire intracellular regions (ICRs) of PTPRZ1, PTPRA, and PTPRM; made in house; host or cells: baculovirus-silkworm expression system
T1 sequence (P28827 765-1452 limits assumed): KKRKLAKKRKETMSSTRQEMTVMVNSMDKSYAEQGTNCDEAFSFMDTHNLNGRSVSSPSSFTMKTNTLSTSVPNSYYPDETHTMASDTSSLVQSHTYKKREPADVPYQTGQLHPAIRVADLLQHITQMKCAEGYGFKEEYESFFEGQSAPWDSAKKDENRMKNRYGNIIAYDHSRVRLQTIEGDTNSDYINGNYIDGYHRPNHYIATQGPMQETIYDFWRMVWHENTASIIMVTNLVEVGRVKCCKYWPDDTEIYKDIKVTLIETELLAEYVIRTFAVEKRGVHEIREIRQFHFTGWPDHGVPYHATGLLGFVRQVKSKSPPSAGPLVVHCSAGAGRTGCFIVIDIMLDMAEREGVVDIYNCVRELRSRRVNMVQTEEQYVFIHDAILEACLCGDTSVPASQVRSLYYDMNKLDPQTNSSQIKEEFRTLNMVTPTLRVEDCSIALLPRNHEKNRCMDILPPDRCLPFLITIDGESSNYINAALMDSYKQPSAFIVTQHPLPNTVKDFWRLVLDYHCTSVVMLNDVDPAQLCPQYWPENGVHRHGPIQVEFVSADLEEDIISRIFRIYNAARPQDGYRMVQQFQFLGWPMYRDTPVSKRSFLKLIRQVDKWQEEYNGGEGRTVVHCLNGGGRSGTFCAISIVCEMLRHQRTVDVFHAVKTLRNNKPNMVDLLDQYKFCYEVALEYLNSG
Procedure: Figure 4 NAZ2329, an allosteric inhibitor of R5 RPTP subfamily members. (A) Structure of NAZ2329. (B) Effect of preincubation of NAZ2329 on its inhibitory activity against PTPRZ. Recombinant human PTPRZ1 enzyme (the whole intracellular region) was premixed with NAZ2329 for the indicated times and followed by addition of a fluorogenic DiFMUP (non-specific PTP substrate, 6,8-difluoro-4-methylumbiliferyl phosphate) to measure PTP inhibitory activity. (C) Time dependence. The PTPRZ1 enzyme was added to the inhibitor–substrate mixture, and the inhibitory activity was determined at each time point relative to the vehicle control. (D) Reversibility of inhibition. […] The mixture was then 20-fold diluted, and recovered PTP activity was expressed as the relative activity compared with the vehicle-treated enzyme. […] PTPRZ1 enzymes were preincubated with NAZ2329 for 60 min, and the PTP activity was measured using DiFMUP. […]
Recombinant proteins corresponding to the entire intracellular regions (ICRs) of PTPRZ1, PTPRA, and PTPRM were expressed using a baculovirus-silkworm expression system, and purified as described. The ICRs of PTPRG, PTPRS, and PTPRB and the catalytic domains of PTPN1 and PTPN6 were expressed as glutathione-S-transferase (GST) fusion proteins from each pGEX plasmid in Escherichia coli strain BL21 (ref. [6]). […]

## CCOc1ccc(C(F)(F)F)cc1CSc1ccsc1C(=O)NS(=O)(=O)c1ccccc1 [NAZ2329]
C6 cells; C6 cells, CSC medium, 7 days
  SOX2 expression: decrease in SOX2 expression
  sphere formation: dose-dependently inhibited sphere formation
C6 cells; C6 spheres, 5 days with compound
  self-renewal of sphere-forming cells: suppressed self-renewal
hPTPRM
  IC50: 56.7 µM
